Our source for the IC50, Inhibition type and Ki values is publication PMC10694853, “Bio-guided isolation of alpha-glucosidase inhibitory compounds from Vietnamese Garcinia schomburgkiana fruits: in vitro and in silico studies” (RSC Advances, 2023).

By IC50 is commonly meant the concentration that inhibits the measured activity by half. The term Ki denotes a dissociation constant, usually derived from enzyme kinetics or from competition with a known ligand.

Entries after “also recorded” stand apart in the source; their conditions may differ. Where two headings read alike, the source gives them in different places.

Experiment [1] has as its target yeast alpha-glucosidase. Kind of experiment: Alpha-glucosidase inhibition assay. Conditions: isolated compounds. Format: biochemical. As for the experimental part: Extracts and fractions EA1–EA16 were evaluated for the alpha-glucosidase inhibition to choose the fraction for further analysis. The isolation of 1–11 was described in Scheme 1 using silica gel CC with various solvent systems.
Evaluation of the inhibitory activity of 1–11 against yeast alpha-glucosidase followed a previous procedure.[34]

For experiment [2], the target named is alpha-glucosidase. Conditions: cited from earlier work; for IC50: read-out: Alpha-glucosidase inhibition IC50.
Experiment [3] has as its system alpha-glucosidase. Kind of experiment: Kinetic study of alpha-glucosidase inhibition (Lineweaver–Burk plots). It counts as biochemical. The method, then: To better understand the kinetic parameters of alpha-glucosidase inhibition by 2, the enzyme activity was assessed by varying substrate concentrations in the absence or presence of 2. The inhibition type was identified through Lineweaver–Burk plots (Fig. 3A), where the reciprocal of the reaction rate (1/V) was graphed against the reciprocal of substrate concentrations (1/[S]). This approach allowed monitoring the effect of the inhibitor on both Km and Vmax. […] The inhibition constant for the inhibitor binding with free enzyme (Ki) was determined from a plot of the slope (Km/Vm) versus the inhibitor concentration (Fig. 3B).
The kinetics of 2 against alpha-glucosidase was conducted by varying the concentration of p-NPG substrate in the absence or presence of tested compound at different concentrations (0, 30.0, and 60.0 μM). The Lineweaver–Burk plots were used to determine the inhibition type. In addition, the inhibition constant Ki is an indication of the potency of an inhibitor and was determined from secondary plots of 1/V vs. [I].[35] The Lineweaver–Burk double-reciprocal plot (1/V vs. 1/[S]) was employed to discern the Vmax, […], and mode of inhibition (Fig. 10). [drawing 1]

Experiment [4] addresses protein tyrosine phosphatase 1B. Also noted: method as in PMID 34111550. Conditions: isolated from H. forrestii; read-out: PTP1B inhibition IC50; cited from earlier work.

For `CC(C)=CCCC1(C)C(CC=C(C)C)CC2(CC=C(C)C)C(=O)C(C(=O)c3ccccc3)=C(O)C1C2=O` (stereo not drawn) [Compound 1, epi-guttiferone Q], half-maximal inhibition in experiment [1] (IC50) was put at 60.7 ± 3.6 µM.

Regarding `CC(C)=CCC/C(C)=C/C[C@H]1C[C@]2(CC=C(C)C)C(=O)[C@@](CC=C(C)C)(C(=O)C(C(=O)c3ccc(O)c(O)c3)=C2O)[C@]1(C)CCC=C(C)C` [Compound 2, guttiferone I], the results for the IC50 in experiment [2] (compound from G. cowa) and in experiment [1] were 13.1 µM and 29.4 ± 1.2 µM, respectively. Further, the Inhibition type entry in experiment [3] (Lineweaver–Burk plots, Vmax constant, Km increased) is reported as “competitive inhibitor; also recorded: competitive type”. Besides, the Ki in experiment [3] (from plot of slope (Km/Vm) versus inhibitor concentration, p-NPG substrate, read-out: Inhibition constant Ki) was 69.2 µM.

`CC(C)=CCCC(C)=CCC12CC3CC4C(C)(C)CCC4(C1=O)C(=O)C(C(=O)c1ccccc1)(C2=O)C3(C)C` (stereo not shown) [Compound 4, hypersampsone I] registered a half-inhibitory concentration (IC50) in experiment [1] of 131 ± 4.6 µM.

For `C=C(C)C1CC23C(=O)C4(CC=C(C)CCC=C(C)C)CC(CC2C1(C)C)C(C)(C)C(C(=O)c1ccccc1)(C4=O)C3=O` (stereo not shown) [Compound 5, sampsonione D], the IC50 in experiment [1] worked out at 116 ± 2.7 µM.

Regarding `CC(C)=CCC/C(C)=C/C[C@]12C[C@@H]3C[C@H]4C(C)(C)CC[C@@]4(C1=O)C(=O)[C@](C(=O)c1ccccc1)(C2=O)C3(C)C` [Compound 6, sampsonione H], the IC50 was 6.63 ± 2.4 µM in experiment [4] and 56.9 ± 1.9 µM in experiment [1].

`COc1cc2oc3cc(O)c(OC)c(CC=C(C)C)c3c(=O)c2c(O)c1CC=C(C)C` [Compound 7, β-mangostin] returned an IC50 in experiment [1] greater than 200 µM.

As to `COc1c(O)cc2oc3cc(O)c(CC=C(C)C)c(O)c3c(=O)c2c1CC=C(C)C` [Compound 8, α-mangostin], the IC50 in experiment [1] was greater than 200 µM.

For `COc1c(O)cc2oc3cc(O)c4c(c3c(=O)c2c1CC=C(C)C)OC(C)(C)C(O)C4` (stereo not shown) [Compound 11, 11-hydroxy-1-isomangostin], the IC50 in experiment [1] is greater than 200 µM.

As for `CC(C)=CCCC1(C)C(CC=C(C)C)CC2(CC=C(C)C)C(=O)C(C(=O)c3ccccc3)=C(O)C1C2=O` (stereo not shown) [Guttiferone Q], in experiment [2], the IC50 was 118 µM.

Regarding `C[C@H]1O[C@H](O[C@H]2[C@H](O)[C@@H](O)[C@@H](O[C@H]3[C@H](O)[C@@H](O)C(O)O[C@@H]3CO)O[C@@H]2CO)[C@H](O)[C@@H](O)[C@@H]1N[C@H]1C=C(CO)[C@@H](O)[C@H](O)[C@H]1O` (stereo partly shown) [acarbose], in experiment [2] (positive control, previous work), the Inhibition type entry is “competitive inhibitor”.

As for `CC(C)=CCCC1(C)C(CC=C(C)C)CC23CCC(C)(C)OC2=C(C(=O)c2ccc(O)c(O)c2)C(=O)C1(CC=C(C)C)C3=O` (stereo not shown) [schomburgkianone I], the IC50 in experiment [2] (isolated from Thai G. schomburgkiana sources) was 21.2 µM.

Take guttiferone K [Compound 3]: half-maximal inhibition in experiment [1] (IC50) was put at 16.2 ± 0.7 µM.
